Biological target: Spleen tyrosine kinase (Syk) (Homo sapiens, UniProt P43405)
Assay: ADP-Glo kinase assay with purified active Syk (Promega Syk Kinase Enzyme System V3801), Poly E4Y1 substrate, ATP
Assay type: biochemical

COC(=O)[C@@]12OC[C@@]34C(CC5C(C)=C(OC(=O)CCC(=O)OCCCCOc6no[n+]([O-])c6S(=O)(=O)c6ccccc6)C(=O)C[C@]5(C)C3[C@@H](O)[C@@H]1O)OC(=O)[C@H](OC(=O)C=C(C)C)C42 (stereo partly shown) [Bru-34, Brusatol derivative-34] was tested, and the IC50 was 540 nM.

— article PMC8042380, “Brusatol Derivative–34 Attenuates Allergic Airway Inflammation Via Inhibition of the Spleen Tyrosine Kinase Pathway” (Frontiers in Pharmacology, 2021)
